Data set [1] concerns HCT-116. Kind of data set: Anticancer activity against human HCT-116 cells assessed as inhibition of cell proliferation measured after 48 hrs by MTT assay. The format is functional, cell-based. The note with it: HCT-116, 48 h. A general note: Tetrazolium dyes change colour on reduction, which living cells bring about.
A short description of data set [2]: Inhibition of KDM (unknown origin) incubated for 30 mins in presence of ATP by ELISA assay. Details: species or system Homo sapiens. For orientation: An ELISA detects its analyte on a solid surface through an enzyme-linked reagent.
The subject of data set [3] is MCF7. Kind of data set: Cell cycle arrest in human MCF7 cells assessed as accumulation at G2/M phase measured after 48 hrs by […] propidium iodide staining based flow cytometry analysis. The class given is functional. The note with it: MCF7, 48 h. A general note: Flow cytometry measures light scatter and fluorescence of single cells or particles in a stream.

Data set [4] concerns Panel NCI-60 (60 carcinoma cell lines). Kind of data set: Anticancer activity against human Panel NCI-60 (60 carcinoma cell lines) assessed as inhibition of cell proliferation. The class given is functional.
A further data set deals with Ramos. Kind of data set: Anticancer activity against human Ramos cells assessed as inhibition of cell proliferation preincubated for 1 hr followed by compound addition measured after 1 hrs by Cell Titer-Glo assay. The format is functional, cell-based.
For data set [5], the target named is Tyrosine-protein kinase BTK (Homo sapiens, UniProt Q06187). Description: Inhibition of human BTK using biotin as a substrate preincubated for 5 mins followed by substrate addition incubated for 30 mins in presence of ATP by fluorescence based assay.
Sequence of Tyrosine-protein kinase BTK (Q06187 whole entry): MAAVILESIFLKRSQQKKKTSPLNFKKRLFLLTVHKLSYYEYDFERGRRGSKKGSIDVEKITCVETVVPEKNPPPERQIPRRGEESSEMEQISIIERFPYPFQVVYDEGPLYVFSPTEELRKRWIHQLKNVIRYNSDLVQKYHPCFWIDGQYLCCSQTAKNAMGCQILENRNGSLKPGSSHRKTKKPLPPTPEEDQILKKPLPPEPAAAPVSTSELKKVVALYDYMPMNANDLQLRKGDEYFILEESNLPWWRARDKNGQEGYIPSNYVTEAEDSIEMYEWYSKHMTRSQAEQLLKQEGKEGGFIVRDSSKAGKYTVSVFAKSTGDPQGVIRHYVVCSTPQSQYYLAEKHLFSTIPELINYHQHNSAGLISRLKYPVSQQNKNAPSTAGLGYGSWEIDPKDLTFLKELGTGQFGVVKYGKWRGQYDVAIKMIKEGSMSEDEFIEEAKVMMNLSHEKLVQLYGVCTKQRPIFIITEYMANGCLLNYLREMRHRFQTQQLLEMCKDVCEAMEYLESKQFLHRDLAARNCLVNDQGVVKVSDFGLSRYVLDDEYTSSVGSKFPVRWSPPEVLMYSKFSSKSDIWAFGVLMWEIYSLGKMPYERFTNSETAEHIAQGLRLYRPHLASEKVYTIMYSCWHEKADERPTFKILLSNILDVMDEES
Another data set concerns Raji. Description: Anticancer activity against human Raji cells assessed as inhibition of cell proliferation preincubated for 1 hr followed by compound addition measured after 1 hrs by Cell Titer-Glo assay. The class given is functional, cell-based.
The next data set has as its system A549. Description: Anticancer activity against human A549 cells assessed as inhibition of cell proliferation measured after 48 hrs by MTT assay based microtiter plate analysis. The format is functional. The note with it: A549, 48 h.
The subject of data set [6] is HeLa. Description: Anticancer activity against human HeLa cells assessed as inhibition of cell proliferation measured after 24 hrs by MTT based microplate ELISA reader analysis. The format is functional.
In data set [7] the target is Tyrosine-protein kinase JAK2 (Homo sapiens, UniProt O60674). Description: Inhibition of human JAK2 using biotin as a substrate preincubated for 5 mins followed by substrate addition incubated for 30 mins in presence of ATP by fluorescence based assay.
Sequence of Tyrosine-protein kinase JAK2 (O60674 whole entry): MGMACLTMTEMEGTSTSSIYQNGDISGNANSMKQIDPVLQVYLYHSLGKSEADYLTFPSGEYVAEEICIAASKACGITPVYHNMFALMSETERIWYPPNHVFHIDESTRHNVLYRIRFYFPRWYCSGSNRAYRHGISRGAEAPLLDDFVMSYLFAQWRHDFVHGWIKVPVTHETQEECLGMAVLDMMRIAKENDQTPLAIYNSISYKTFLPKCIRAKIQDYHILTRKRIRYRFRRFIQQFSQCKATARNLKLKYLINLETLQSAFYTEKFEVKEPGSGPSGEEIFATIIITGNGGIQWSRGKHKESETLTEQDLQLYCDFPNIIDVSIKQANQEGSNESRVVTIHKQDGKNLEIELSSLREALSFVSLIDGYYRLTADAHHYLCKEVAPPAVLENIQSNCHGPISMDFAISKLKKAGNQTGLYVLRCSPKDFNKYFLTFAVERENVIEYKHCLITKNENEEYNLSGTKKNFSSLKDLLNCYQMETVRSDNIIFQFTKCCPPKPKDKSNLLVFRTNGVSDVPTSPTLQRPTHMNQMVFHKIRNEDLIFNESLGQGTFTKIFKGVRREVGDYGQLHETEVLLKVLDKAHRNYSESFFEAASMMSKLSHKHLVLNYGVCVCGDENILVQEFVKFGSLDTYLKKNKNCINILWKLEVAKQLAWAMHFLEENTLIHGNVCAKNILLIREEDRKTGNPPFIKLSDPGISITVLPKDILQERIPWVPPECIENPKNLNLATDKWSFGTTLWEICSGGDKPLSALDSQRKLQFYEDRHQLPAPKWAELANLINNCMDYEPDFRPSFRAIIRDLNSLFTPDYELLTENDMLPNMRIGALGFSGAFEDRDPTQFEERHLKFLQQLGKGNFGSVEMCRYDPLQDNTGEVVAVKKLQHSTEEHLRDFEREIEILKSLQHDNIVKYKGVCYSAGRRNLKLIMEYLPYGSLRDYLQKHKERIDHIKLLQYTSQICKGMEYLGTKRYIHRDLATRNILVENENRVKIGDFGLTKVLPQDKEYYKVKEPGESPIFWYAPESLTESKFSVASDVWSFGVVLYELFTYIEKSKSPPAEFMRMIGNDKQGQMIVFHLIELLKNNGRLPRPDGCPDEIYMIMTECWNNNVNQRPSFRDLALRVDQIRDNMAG
In data set [8] the test system is HepG2. Kind of data set: Anticancer activity against human HepG2 cells assessed as inhibition of cell proliferation measured after 16 hrs by MTT assay. The note with it: HepG2, 16 h. The class given is functional, cell-based.
For another data set, the system named is HT-29. Description: Anticancer activity against human HT-29 cells assessed as inhibition of cell proliferation measured after 16 hrs by MTT assay. The format is functional, cell-based. The note with it: HT-29, 16 h.
A further data set concerns KB. Kind of data set: Anticancer activity against human KB cells assessed as inhibition of cell proliferation measured after 16 hrs by MTT assay. The class given is functional, cell-based.
The test system of data set [9] is HeLa. Kind of data set: Anticancer activity against human HeLa cells assessed as inhibition of cell proliferation measured after 24 hrs by MTT assay. The format is functional, cell-based.
Data set [10] deals with MCF7. Kind of data set: Anticancer activity against human MCF7 cells assessed as inhibition of cell proliferation measured after 24 hrs by MTT assay. The format is functional, cell-based. The note with it: MCF7, 24 h.
In data set [11] the test system is HCT-116. Kind of data set: Anticancer activity against human HCT-116 cells assessed as inhibition of cell proliferation measured after 18 hrs by spectrophotometric analysis relative to control. The class given is functional.
Data set [12] concerns MCF7. Description: Anticancer activity against human MCF7 cells assessed as inhibition of cell proliferation measured after 18 hrs by spectrophotometric analysis relative to control. The format is functional.
In data set [13] the test system is MCF7. Kind of data set: Anticancer activity against human MCF7 cells assessed as inhibition of cell proliferation measured after 24 hrs by MTT based microplate ELISA reader analysis. The class given is functional. The note with it: MCF7, 24 h.
Data set [14] is described as follows: Selectivity index, ratio of IC50 for cytotoxicity against FHC cells to IC50 for antiproliferative activity against KM12 cells. The format is toxicity, cell-based. The note with it: human; read-out: Ratio IC50.
The subject of a further data set is KM12. Kind of data set: Anticancer activity against human KM12 cells assessed as inhibition of cell proliferation measured after 72 hrs by MTT assay. The class given is functional, cell-based. The note with it: KM12, 72 h.
The test system of data set [15] is HepG2. Kind of data set: Anticancer activity against human HepG2 cells assessed as inhibition of cell proliferation measured after 72 hrs by SRB calorimetric assay. The format is functional, cell-based. The note with it: HepG2, 72 h.
The subject of the next data set is Maver1. Kind of data set: cells. The note with it: Homo sapiens, Maver1, 72 h.
A short description of data set [16]: Anticancer activity against human MINO cells assessed as inhibition of cell proliferation measured after 72 hrs by Cell Titer-Glo Luminescent. The class given is functional, cell-based.
The test system of a further data set is JeKo-1. Description: Anticancer activity against human JeKo-1 cells assessed as inhibition of cell proliferation measured after 72 hrs by Cell Titer-Glo Luminescent. The class given is functional, cell-based. The note with it: JeKo-1, 72 h.
The subject of another data set is Z-138. Kind of data set: Anticancer activity against human Z138 cells assessed as inhibition of cell proliferation measured after 72 hrs by Cell Titer-Glo Luminescent. The format is functional, cell-based. The note with it: Z-138, 72 h.
The target of data set [17] is cGMP-specific 3',5'-cyclic phosphodiesterase (Homo sapiens, UniProt O76074). Kind of data set: Inhibition of PDE5 (unknown origin).
Data set [18] concerns the target Epidermal growth factor receptor (Homo sapiens, UniProt P00533). Description: Inhibition of EGFR (unknown origin) by EGFR Kinase Assay Kit method.
Data set [19] relates to MCF7. Description: Anticancer activity against human MCF7 cells assessed as inhibition of cell proliferation measured after 48 hrs by MTT assay. The class given is functional, cell-based. The note with it: MCF7, 48 h.
Data set [20] deals with HepG2. Description: Anticancer activity against human HepG2 cells assessed as inhibition of cell proliferation by MTT assay. The class given is functional, cell-based.

The source of these data is ChEMBL document CHEMBL5226337, “Pyrazolopyrimidines as anticancer agents: A review on structural and target-based approaches” (Eur J Med Chem, 2021).

≈ marks a conversion by molar mass, not a printed value.

Sequence of Epidermal growth factor receptor (P00533 whole entry): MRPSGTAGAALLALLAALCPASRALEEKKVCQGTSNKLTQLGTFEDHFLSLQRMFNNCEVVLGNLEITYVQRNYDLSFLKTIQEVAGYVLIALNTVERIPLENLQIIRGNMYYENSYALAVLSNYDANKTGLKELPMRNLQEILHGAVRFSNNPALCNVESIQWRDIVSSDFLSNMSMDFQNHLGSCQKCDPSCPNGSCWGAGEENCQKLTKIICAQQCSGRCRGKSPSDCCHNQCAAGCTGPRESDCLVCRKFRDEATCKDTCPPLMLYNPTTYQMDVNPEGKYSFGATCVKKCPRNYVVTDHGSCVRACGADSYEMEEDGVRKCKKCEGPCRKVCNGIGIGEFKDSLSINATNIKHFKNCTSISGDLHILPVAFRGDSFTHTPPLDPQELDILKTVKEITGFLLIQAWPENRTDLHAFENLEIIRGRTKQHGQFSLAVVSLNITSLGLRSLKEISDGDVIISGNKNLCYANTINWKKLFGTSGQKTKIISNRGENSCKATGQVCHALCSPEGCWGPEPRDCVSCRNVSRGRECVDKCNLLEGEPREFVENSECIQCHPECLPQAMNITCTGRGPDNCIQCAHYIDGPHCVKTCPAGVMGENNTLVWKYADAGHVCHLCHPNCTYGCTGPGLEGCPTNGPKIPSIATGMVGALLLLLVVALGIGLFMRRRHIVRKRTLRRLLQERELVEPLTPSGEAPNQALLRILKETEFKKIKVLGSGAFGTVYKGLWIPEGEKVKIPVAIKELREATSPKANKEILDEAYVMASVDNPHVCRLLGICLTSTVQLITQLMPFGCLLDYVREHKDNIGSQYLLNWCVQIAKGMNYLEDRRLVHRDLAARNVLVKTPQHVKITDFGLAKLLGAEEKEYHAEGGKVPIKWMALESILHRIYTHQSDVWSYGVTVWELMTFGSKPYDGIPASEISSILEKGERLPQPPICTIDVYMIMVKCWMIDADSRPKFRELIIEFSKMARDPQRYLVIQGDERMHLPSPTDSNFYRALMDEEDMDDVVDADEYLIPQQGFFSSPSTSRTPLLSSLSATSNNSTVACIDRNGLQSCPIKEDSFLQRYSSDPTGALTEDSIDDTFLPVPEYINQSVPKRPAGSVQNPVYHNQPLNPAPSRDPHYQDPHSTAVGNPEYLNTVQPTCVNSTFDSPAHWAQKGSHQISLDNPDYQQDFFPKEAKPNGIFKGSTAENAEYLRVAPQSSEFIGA
Description for Maver1: Anticancer activity against human MAVER-1 cells assessed as inhibition of cell proliferation measured after 72 hrs by Cell Titer-Glo Luminescent

One may read the IC50 as the concentration at which inhibition is half-maximal. On to `CCNc1nn2c(-c3ccccc3)cc(=O)[nH]c2c1C(=O)Nc1ccc([N+](=O)[O-])cc1`, for which the half-maximal inhibitory concentration (IC50) in the data set with HCT-116 [1] came to 1.51 µM. `COc1cc(/C=C(/C#N)c2nn3c(=O)cc(C)[nH]c3c2C#N)ccc1O`: the 50% inhibitory concentration (IC50) in [2] was determined as 2.31 µM; with MCF7 [3], 1.91 µM. As a reminder, the GI50 is the concentration that inhibits growth by half. `Nc1ncnc2c1c(Cc1c[nH]c3ccccc13)nn2CC1CCNCC1`: the 50% growth inhibitory concentration (GI50) in [4] was found to be 0.019 µM. With `C=CC(=O)N1CCCC(N2NC(c3cc(C(C)(C)O)n(C)n3)c3c(N)ncnc32)C1` (centres undefined), the IC50 with Ramos came out at 8.91 µM; in data set [5] it was 0.00795 µM; in the data set with Raji it was 1.8 µM. In the case of `C#Cc1cccc(Nc2ncnc3cc(OCCOC)c(OCCOC)cc23)c1` [ERLOTINIB], the half-inhibitory concentration (IC50) with A549 was found to be 11.7 µM.

Regarding `COc1ccc(-c2c(C#N)cnc3c(C#N)c(-c4ccccc4)nn23)cc1`, the IC50 in the data set on HeLa [6] was determined as 7.8 µM. As for `Cn1nc(C2NN(C3CCCN(C(=O)CC#N)C3)c3ncnc(N)c32)cc1C=O` (centres undefined), in [7], the IC50 was determined as 0.0097 µM.

Turning to `CCOC(=O)C1=C(C)n2nc(CC#N)c(C#N)c2NC1c1ccc(N(C)C)cc1` (centres undefined), the results for the IC50 in the data set with HepG2 [8], with HT-29 and in the data set with KB were 9.41 µM, 9.23 µM and 8.31 µM, respectively. Regarding `Nc1nc(Cl)c2cnn(Cc3ccc(Br)cc3F)c2n1`, the concentration for half-maximal inhibition (IC50) in the data set on HeLa [9] came to 22.4 µM; in the data set on MCF7 [10] it was 13.9 µM. Turning to `Cc1nn(-c2ccccc2)c2nc(C)n(Cc3cn(-c4ccc(Cl)cc4)nn3)c(=O)c12`, the “inhibition (INH)” value in the data set on HCT-116 [11] and in the data set with MCF7 [12] was 75.4% each time.

Regarding `COc1cccc2c1C(=O)c1c(O)c3c(c(O)c1C2=O)C[C@@](O)(C(=O)CO)C[C@@H]3O[C@H]1C[C@H](N)[C@H](O)[C@H](C)O1` [DOXORUBICIN], the figures for the IC50 in the data set with HeLa [6] and in the data set with MCF7 [13] were 8.1 µM and 5.9 µM, respectively. As to `CSc1nc(-c2cccs2)c2c(N)n[nH]c2n1`, the selectivity ratio in [14] is 35.5. The IC50 in the data set on KM12 amounted to 1.21 µM. In the case of `N#Cc1c(-c2ccccc2)nn2c(-c3cccc4ccccc34)ccnc12`, the half-inhibitory concentration (IC50) in the data set with MCF7 [13] was determined as 3 µM. Turning to `CCOC(=O)C1=C(C)n2nc(CC#N)c(C#N)c2NC1c1cc(Br)ccc1O` (centres undefined), the half-maximal inhibitory concentration (IC50) with HepG2 [8] stood at 9.64 µM; in the data set with HT-29, 5.62 µM; with KB, 6.94 µM. With `COc1ccc(C2c3c(-c4ccccc4)n[nH]c3Nc3[nH]c(=S)[nH]c(=S)c32)cc1` (centres undefined), in the data set with HepG2 [15], the IC50 is 9.2 µM. For the molecule `Nc1ncnc2c1c(-c1ccc(Oc3ccccc3)nc1)nn2C1CCCN(C(=O)CCl)C1` (centres undefined), the IC50 in the data set with Maver1 is below 1 µM. As for `Cc1cc(=O)n2nc(CC#N)c(C#N)c2[nH]1`, the 50% inhibitory concentration (IC50) in data set [2] came out at 4.05 µM. `O=c1[nH]cc(F)c(=O)[nH]1` [FLUOROURACIL]: in data set [14], the selectivity ratio came out at 1.93. Also, the half-inhibitory concentration (IC50) in the data set on KM12 stood at 12.3 µM. With `O=C(NCc1cc(C(F)(F)F)cc(C(F)(F)F)c1)NC1CCN(c2ncnc3[nH]ncc23)CC1`, the IC50 (in [16]; with JeKo-1; in the data set with Z-138) was below 1 µM in each case. Turning to `Cc1cc(=O)n2nc(/C(C#N)=C\c3ccco3)c(C#N)c2[nH]1`, the concentration for half-maximal inhibition (IC50) in data set [2] stood at 1.91 µM. Turning to `CCOC(=O)C1=C(C)n2nc(CC#N)c(C#N)c2NC1c1ccccc1` (centres undefined), the concentration for half-maximal inhibition (IC50) with HepG2 [8] was 4.41 µM; with HT-29, 8.12 µM; in the data set with KB it was 7.58 µM. For `COc1nc2ccccc2cc1-c1nc2c(cnn2-c2ccc(Br)cc2)c(=O)[nH]1`, the IC50 with HeLa [9] worked out at 8.72 µM; in data set [17] it was 1.57 µM; in data set [18], 5.83 µM; in the data set with MCF7 [10], 6.56 µM.

Turning to `CSc1nc(-c2ccco2)c2c(N)n[nH]c2n1`, the selectivity ratio in data set [14] is 18.8. For the same molecule, in the data set on KM12, the IC50 amounted to 1.73 µM.

For the molecule `C=CC(=O)N1CCC(N2NC(c3cc(C(C)(C)O)n(C)n3)c3c(N)ncnc32)C1` (centres undefined), the IC50 in data set [7] stood at 0.0072 µM. Consider `CC1=CC(C)Nc2c(C(=O)Nc3c(C)cccc3C)c(Nc3ccccc3)nn21` (centres undefined), for which the IC50 in the data set on MCF7 [19] amounted to 7.68 µM. As to `CSc1c(C#N)c(N)nc2c(/N=N/N3C(=O)c4ccccc4C3=O)c(O)nn12`, the concentration for half-maximal inhibition (IC50) with HeLa [9] was 5.57 µM; in the data set on MCF7 [10] it was 4.17 µM; with HepG2 [20], 5.6 µg/mL (≈ 14.2 µM). With `Cn1nc(C2NN(C3CCCN(C(=O)CC#N)C3)c3ncnc(N)c32)cc1C(C)(C)O` (centres undefined), the concentration for half-maximal inhibition (IC50) in [7] is 0.008 µM.
